US9206405B2, “Glycosyl hydrolase with beta-xylosidase and beta-glucosidase activities and uses thereof” (Institute of Materia Medica, Chinese Academy of Medical …, priority 2010, dated 2015)

Experiments:
LXYL-P1 (or P1) protein = experiment: Specificity test on different glycoside (chromogenic) substrates hydrolysis by purified LXYL-P1; assay type: biochemical, Lentinula edodes M95.33; conditions: 20 min; for Relative activity (% control): control = PNP-Xyl; for Relative activity (% control) / OD405 value: 5 mM substrate, pH 5.0, 50° C., purified P1; for OD405 value: release of p-nitrophenol at 405 nm; for hydrolysis of chromogenic substrate by P1 protein (in words): 50° C., pH 5.0
Description: In addition to the β-xylosidase activity, especially the activity of hydrolyzing 7-xylosyltaxanes, the specificity of the LXYL-P1 (or P1) on other glycoside substrates was also tested by employing four chromogenic substrates: p-nitrophenyl-β-D-glucopyranoside (PNP-Glc), p-nitrophenyl-β-D-galactopyranoside (PNP-Gal), p-nitrophenyl-α-L-arabinopyrano side (PNP-Ara), and p-Nitrophenyl-β-D-xylopyranoside (PNP-Xyl, serving as a control). Each of the chromogenic substrates was prepared in 50 mM acetate buffer to obtain 5 mM solution (pH 5.0).
To the purified P1 protein diluent (25 μl) obtained in example 1, 100 μl of each chromogenic substrate was added. The reaction was performed at 50° C. for 20 min and stopped with 2 ml saturated solution of sodium borate. Release of p-nitrophenol (absorbance value) was measured at 405 nm.

[1] = tested on: recombinant strain GS115-9K-P1-2; experiment: β-xylosidase activity of the recombinant yeast strain on PNP-Xyl; assay type: cell-based, Pichia pastoris
Description: FIG. 4: Comparison of the recombinant strains GS115-9K-P1-2 and GS115-9K (control) on β-xylosidase activity.
BMGY medium (contains per liter: 10.00 g yeast extract, 20.00 g peptone, 100 mM potassium phosphate buffer, pH 6.0, 10 ml glycerol) and BMMY medium (10 ml glycerol in BMGY medium was replaced with 10 ml methanol as the carbon source) were used as the seed culture and fermentation media respectively for the recombinant yeast. The resistant strain obtained by screening was inoculated into 10 ml seed culture medium and incubated at 30° C., 220 rpm for 18 h. The cultures were washed 2 times by centrifugation and the cell pellet was transferred into 50 ml fermentation medium. Cells were cultured at 30° C., 220 rpm, and 1% methanol was added every 24 h for induction of expression of the recombinant protein. Meanwhile the enzyme activity of the recombinant strain was detected regularly. […]

[2] = tested on: recombinant yeast GS115-3.5K-P1-2; experiment: Hydrolysis of XDB by the recombinant yeast; assay type: cell-based, Pichia pastoris; conditions: 8 mg XDB/ml, 16 mg dry cells/ml, 24 h, 30-55° C., HPLC
Description: The strain was the same as that in Example 6 and the substrate was 7-xylosyl-10-deacetylbaccatin III (XDB). 1.5 ml cell reaction solution contained 16 mg dry cells per milliliter and 8 mg XDB per milliliter. The mixture was incubated in a water shaking bath for 24 h at 30˜55° C.

[3] = tested on: recombinant yeast GS115-3.5K-P1-2; experiment: Hydrolysis of 7-xylosyltaxane mixtures by the recombinant yeast; assay type: cell-based, Pichia pastoris; conditions: 7-xylosyltaxane mixtures about 8 mg/ml, 24 h, 30-55° C., HPLC
Source text: The recombinant yeast GS115-3.5K-P1-2 (transformant of the recombinant expression plasmid pPIC3.5K-P1-2) obtained in Example 4 was applied in the following bioconversion reaction, wherein the substrates to be converted were 7-xylosyltaxane mixtures, the main components of which included 62.12% of 7-xylosyl-10-deacetyltaxol, 12.75% of 7-xylosyl-10-deacetylcephalomannine, 17.04% of 7-xylosyl-10-deacetyltaxol C, and 8.09% of other components.
The method for culturing the recombinant strain was the same as in Example 5. 16 ml 7-xylosyltaxane mixtures (at a concentration of 100 mg/ml) were added to 200 ml recombinant strain reaction solution with the final concentration of the 7-xylosyltaxane mixtures being about 8 mg/ml (supersaturated). The recombinant yeast introduced with the null vector was taken as the negative control. The solution was mixed by magnetic stirring for 24 h at 30˜55° C. […] The yields of the three main products: 10-deacetyltaxol (DT): 3.27 mg/ml; 10-deacetylcephalomannine (DC): 0.74 mg/ml; and 10-deacetyltaxol C (DTC): 0.92 mg/ml.

[4] = tested on: Leifsonia shinshuensis DICP 16; conditions: 1 mg XDT in 2 ml cell suspension, 21 h, 30° C.; cited from earlier work
[5] = tested on: Moraxella sp. (ATCC55475); conditions: XDT 0.25 mg/ml, wet cells 91.5 mg/ml, 21 h, 28° C.; cited from earlier work
LXYL-P1 (or P1) = experiment: XDT conversion by Phenyl Sepharose peak LXYL-P1, thin layer chromatography; assay type: biochemical, Lentinula edodes M95.33; conditions: TLC, FIG. 1B
Source text: (§1) FIG. 1: Phenyl Sepharose hydrophobic column chromatography of the β-xylosidase-β-glucosidase from the protein extract of the fungus M95.33 (A), and thin layer chromatography (TLC) of XDT conversion (B). • A: P1. active elution peak of LXYL-P1; P2. active elution peak of LXYL-P2. […] XDT (control); 2. DT (control); 3. XDT bioconversion by LXYL-P1; 4. XDT bioconversion by LXYL-P2.
(§2) The fraction eluted in the above step was applied to a Phenyl Sepharose hydrophobic column (1.6 cm×20 cm) equilibrated with 50 mM Tris-HCl buffer (pH 8.0) containing 1 M […]. Elution was performed with Tris-HCl buffer (50 mM, pH8.0) having a linear gradient of 1.0˜0 M (NH4)2SO4 (at a flow rate of 2 ml/min). Fractions having enzymatic activity were collected and dialyzed with Tris-HCl buffer (50 mM, pH8.0).
(§3) Within penal B, 1 was XDT control; 2 was DT control; 3 was XDT conversion by P1; and 4 was XDT conversion by P2.

LXYL-P2 (or P2) = experiment: XDT conversion by Phenyl Sepharose peak LXYL-P2, thin layer chromatography; assay type: biochemical, Lentinula edodes M95.33; conditions: TLC, FIG. 1B
Source text: as §1, §2, §3

[6] = tested on: recombinant yeast GS115-9K-P1-2; experiment: Hydrolysis of 7-xylosyl-10-deacetyltaxol (XDT) by the recombinant yeast; assay type: cell-based, Pichia pastoris; conditions: XDT 0.625 mg/ml, 12 h, 30-55° C.
Description: The recombinant yeast GS115-9K-P1-2 (transformant of the recombinant expression plasmid pPIC-9K-P1-2) obtained in example 4 was cultured and induced for 5 days in the manner of Example 4. Cells were centrifuged, harvested and washed, and then was, directly or after lyophilization, suspended with 50 mM acetate buffer or phosphate buffer (65 mg wet cells/ml or 16 mg dry cells/ml, pH 3.5˜7.5), and used as the hydrolytic reaction solution. To 20 ml of the cell reaction solution, 0.5 ml solution of 7-xylosyl-10-deacetyltaxol (XDT) was added with the final concentration of XDT being 0.625 mg/ml. The resultant was incubated in a water shaking bath for 12 h at 30˜55° C.
Extraction was performed with ethyl acetate after the reaction was completed.

| Structure (SMILES) | Relative activity (% control) (LXYL-P1 (or P1) protein) | OD405 value (LXYL-P1 (or P1) protein) | conversion ratio [3] | further results |
| --- | --- | --- | --- | --- |
| O=[N+]([O-])c1ccc(O[C@@H]2OC[C@H](O)[C@H](O)[C@H]2O)cc1 [PNP-Ara, p-nitrophenyl-α-L-arabinopyranoside] | 0 % control | 0.000 |  |  |
| O=[N+]([O-])c1ccc(O[C@@H]2O[C@H](CO)[C@H](O)[C@H](O)[C@H]2O)cc1 [PNP-Gal, p-nitrophenyl-β-D-galactopyranoside] | 0 % control | 0.000 |  |  |
| O=[N+]([O-])c1ccc(O[C@@H]2O[C@H](CO)[C@@H](O)[C@H](O)[C@H]2O)cc1 [PNP-Glc, p-nitrophenyl-β-D-glucopyranoside] | 217 % control | 1.615 |  | hydrolysis of chromogenic substrate by P1 protein (in words) (LXYL-P1 (or P1) protein): could hydrolyze |
| O=[N+]([O-])c1ccc(O[C@@H]2OC[C@@H](O)[C@H](O)[C@H]2O)cc1 [PNP-Xyl, p-nitrophenyl-β-D-xylopyranoside] | 100 % control | 0.745 |  | ability of recombinant strain to hydrolyze the substrate ([1]; cell suspension, 5 mM PNP-Xyl, 20 min, 30-55° C.): has the ability to hydrolyze; enzymatic activity in supernatant of fermentation broth of recombinant strain ([1]; supernatant of the fermentation broth): no obvious enzymatic activity was detected; hydrolysis of chromogenic substrate by P1 protein (in words) (LXYL-P1 (or P1) protein): could hydrolyze |
| CC(=O)O[C@@]12CO[C@@H]1C[C@H](O[C@@H]1OC[C@@H](O)[C@H](O)[C@H]1O)[C@@]1(C)C(=O)[C@H](O)C3=C(C)[C@@H](O)C[C@@](O)([C@@H](OC(=O)c4ccccc4)[C@H]21)C3(C)C [XDB, 7-Xylosyl-10-deacetylbaccatin III] |  |  |  | conversion ratio [2]: 86.54% |
| CC=C(C)C(=O)NC(c1ccccc1)C(O)C(=O)OC1CC2(O)C(OC(=O)c3ccccc3)C3C4(OC(C)=O)COC4CC(OC4OCC(O)C(O)C4O)C3(C)C(=O)C(O)C(=C1C)C2(C)C (stereo not shown) [XDC, 7-Xylosyl-10-deacetylcephalomannine] |  |  | 93.60% |  |
| CC(=O)O[C@@]12CO[C@@H]1C[C@H](O[C@@H]1OC[C@@H](O)[C@H](O)[C@H]1O)[C@@]1(C)C(=O)[C@H](O)C3=C(C)[C@@H](OC(=O)[C@H](O)[C@@H](NC(=O)c4ccccc4)c4ccccc4)C[C@@](O)([C@@H](OC(=O)c4ccccc4)[C@H]21)C3(C)C [XDT, 7-Xylosyl-10-deacetyltaxol] |  |  | 92.45% | XDT remaining after reaction (HPLC) [4]: No XDT was found to be remaining; XDT remaining after reaction (HPLC) [5]: No XDT was found to be remaining; hydrolysis of XDT into DT by P1 (LXYL-P1 (or P1)): could hydrolyze; hydrolysis of XDT into DT by P2 (LXYL-P2 (or P2)): could hydrolyze; conversion ratio ([6]; HPLC): 98.80%; substrate transformation by TLC ([6]; TLC): completely transformed |
| CCCCCC(=O)N[C@@H](c1ccccc1)[C@@H](O)C(=O)O[C@H]1C[C@@]2(O)[C@@H](OC(=O)c3ccccc3)[C@@H]3[C@]4(OC(C)=O)CO[C@@H]4C[C@H](O[C@@H]4OC[C@@H](O)[C@H](O)[C@H]4O)[C@@]3(C)C(=O)[C@H](O)C(=C1C)C2(C)C [XDTC, 7-Xylosyl-10-deacetyltaxol C] |  |  | 92.00% |  |
